Consider five molecules from paper PMC3144881, “Computational Reverse-Engineering of a Spider-Venom Derived Peptide Active Against Plasmodium falciparum SUB1” (PLoS ONE, 2011).

Data set [1] has as its system P. falciparum 3D7 segmented schizonts (egress/invasion). Put plainly: Merozoite egress/invasion assay, synchronized schizonts, flow cytometry (YOYO-1). In kind it is cell-based, Plasmodium falciparum. The conditions noted are these: 10 μM E64, 12 hr, 0.5% segmented schizonts, vs mock control. A general note: Flow cytometry measures light scatter and fluorescence of single cells or particles in a stream.

Data set [2] shares this test system. To be noted: cited from earlier work. On the procedure: A synchronised culture composed of segmented schizontes of P. falciparum (3D7 clone) at 0.5% parasitemia and 1% hematocrit is performed in a 24 wells plate. An aliquot corresponding to 10% of the starting culture (T ) is diluted in a solution at 0.04% of glutaraldehyde in PBS (Dulbecco) and store at 4 C for further flow cytometry analysis.

For data set [3], the target named is recombinant Plasmodium falciparum subtilisin-like serine protease SUB1 (PfSUB1), purified and active (Plasmodium falciparum) (UniProt Q8I0V0).
Data set [4] shares this target. The experiment in a line: enzyme inhibition assay (Dabsyl/Edans quenched fluorescent peptide substrate); 13 ng purified PvSUB1 or PfSUB1, 25 uM substrate, 20 mM Tris pH 7.5, 25 mM CaCl2, 37 C; inhibitor at ten concentrations from 1 mM to 2 uM; fluorescence read every 3 min for 90 min; N = 3.
Data set [5] deals with recombinant Plasmodium vivax SUB1 (PvSUB1), purified and active (Plasmodium vivax) (UniProt E6Y8B9). Described as above.
The target of data set [6] is recombinant Plasmodium falciparum subtilisin-like serine protease SUB1 (PfSUB1), purified and active (Plasmodium falciparum) (UniProt Q8I0V0). This is another data set of the same source.
Data set [7] has as its target T1, recombinant PfSUB1 (Plasmodium falciparum, UniProt Q8I0V0).
T1 construct: Culture supernatant containing the secreted and active PvSUB1 or PfSUB1 recombinant enzymes was harvested; 6xHis (C); made in house; host or cells: Sf9 insect cells (baculovirus)
Details: method as in 2 sources, ref 22 = [22]; PMID 12764150; doi:10.1074/jbc.M303827200; 22 Jean L Hackett F Martin SR Blackman MJ 2003 Functional characterization of the propeptide of Plasmodium falciparum subtilisin-like protease-1. J Biol Chem 278 28572 9 12764150 10.1074/jbc.M30382720 ||| ref Bouillon et Giganti et al, in preparation. The conditions noted are these: ± 3,4; substrate cleaved between D and N, Dabsyl/Edans; ref Bouillon et Giganti et al, in preparation; read-out: apparent Km of PfSUB1 for its substrate; cited from earlier work.

The test system of data set [8] is P. falciparum. To be noted: intra-erythrocytic cycle; cited from earlier work.
Data set [9] deals with P. falciparum clone 3D7 (asynchronous culture). To be noted: read-out: EC50 on the asynchronous culture of P. falciparum intra-erythrocytic cycle; ± 6 (SEM); clone 3D7, 0,5% parasitemia, 1% hematocrit, 48 hours contact, 10 μM hypoxanthine, 37 °C. On the procedure:
Asexual cultures of reference clone 3D7 obtained from MR4 (www.MR4.org) was maintained in continuous cultures following the method of Trager an Jensen, except that the medium was composed of RPMI 1640 medium supplemented with 10% decomplemented human serum (AB+), hypoxanthine 100 [drawing 51] M, gentamycin […]. Parasites were incubated at 37 [drawing 52] C in an atmosphere composed of 5%O [drawing 53] , 5%CO [drawing 54] and 90%N [drawing 55] . […] EC [drawing 57] have been determined following nonlinear regression analysis using HN-NonLin V1.1 software (http://malaria.farch.net).

Data set [10] concerns fungi, bacteria. The conditions noted are these: cited from earlier work. The source says: (§1) In addition to therapies based on small molecules such as chloroquine, artemisinins, quinine and atovaquone, the development of new classes of molecules based on proteins or peptidomimetics [8] is an active field of research. […] Choi et al. have isolated from the ven ...
Data set [11] concerns human epithelial cells. To be noted: cited from earlier work.
Excerpt: as §1

The target of data set [12] is T1, recombinant PfSUB1. Put plainly: Enzymatic test: inhibition of recombinant PfSUB1, Dabsyl/Edans peptide substrate. In kind it is biochemical. To be noted: translated from the measured PfSUB1 Ki.
Data set [13] deals with T2, recombinant Plasmodium vivax SUB1 (PvSUB1) (Plasmodium vivax, UniProt E6Y8B9).
T2 construct: Culture supernatant containing the secreted and active PvSUB1 or PfSUB1 recombinant enzymes was harvested; 6xHis (C); made in house; host or cells: Sf9 insect cells (baculovirus)
Details: method as in Bouillon et Giganti et al, in preparation. To be noted: ± 1,7; substrate cleaved between the two aspartates, Dabsyl/Edans; ref Bouillon et Giganti et al, in preparation; read-out: apparent Km of PvSUB1 for its substrate; cited from earlier work.

For the molecule `CC(C)C[C@H](NC(=O)[C@H]1O[C@@H]1C(=O)O)C(=O)NCCCCN=C(N)N` (relative stereo) [E64, trans-Epoxysuccinyl-L-leucylamido(4-guanidino)butane], in data set [1], the “inhibition of newly formed trophozoites and equivalent segmented schizont accumulation” value was determined as 91.6%. Further, the “block of egress of P. falciparum merozoites in vitro” value in data set [2] is on record as “known to block the egress of P. falciparum merozoites in vitro”.
“Psalmopeotoxin I (PcFK1), chemically synthesized with an extra serine at the C-term (from UniProt P0C201 52-86) (peptide)”: the EC50 of PcFK1 on the asynchronous culture of P. falciparum intra-erythrocytic cycle (clone 3D7, 48 hours with the drug) in [3] is 116 µM. Also, the inhibition constant Ki in data set [4] turned out to be 29.3 µM; in data set [5] it was 36.3 µM. Moreover, the inhibition of newly formed trophozoites (merozoite egress/invasion, synchronized P. falciparum culture, 12 hr, flow cytometry) at 200 uM PcFK1, compared to the mock control in data set [6] is 56.2%.
“KLVSADNIDIS [PfSUB1 peptide substrate with fluorophore/quencher Dabsyl/Edans at each edge]”: the Km in [7] is 30.2 µM.
For `CC[C@H](C)[C@@H]1NC(=O)CNC(=O)[C@@H](NC(=O)[C@H](C)N)CSSC[C@@H]2NC(=O)[C@@H]3CSSC[C@@H](C(=O)N[C@@H](CC(C)C)C(=O)N[C@H](C(=O)N[C@@H](CCC(N)=O)C(=O)N[C@H](C(=O)N[C@@H](CO)C(=O)O)C(C)C)C(C)C)NC(=O)[C@H](CCCCN)NC(=O)CNC(=O)[C@H](Cc4ccc(O)cc4)NC(=O)[C@H](CCCNC(=N)N)NC(=O)[C@H](CSSC[C@H](NC(=O)[C@H](CC(N)=O)NC(=O)[C@H](CC(=O)O)NC(=O)[C@H](Cc4c[nH]cn4)NC(=O)[C@H](CC(C)C)NC1=O)C(=O)N[C@@H](C(C)C)C(=O)N[C@@H](Cc1ccc(O)cc1)C(=O)N[C@@H](C(C)C)C(=O)N1CCC[C@H]1C(=O)N[C@@H](C)C(=O)N[C@@H](CCC(N)=O)C(=O)N[C@@H](CC(N)=O)C(=O)N1CCC[C@H]1C(=O)N3)NC(=O)[C@H](CCC(N)=O)NC(=O)[C@H](CC(C)C)NC(=O)CNC(=O)[C@H](CCCNC(=N)N)NC2=O` [PcFK1], the “IC50, growth of P. falciparum” value in [8] is recorded as “low micromolar range”. In addition, in data set [9], the EC50 was determined as 116 µM. Also, the “antifungal or antibacterial activity” value in [10] is “no antifungal or antibacterial activity”. For the same molecule, the “effect on growth or viability of human epithelial cells” value in [11] is recorded as “nor do they affect the growth or viability of human epithelial cells”. Moreover, the “free energy of binding translated from Ki value” in data set [12] was -6.37 kcal/mol.
Turning to “KLVGADDVSLA [PvSUB1 peptide substrate with fluorophore/quencher Dabsyl/Edans at each edge]”, the Km in [13] is 19.7 µM.

The term Ki denotes a measure of affinity in units of concentration, obtained from inhibition or displacement. In general, Km refers to the concentration of substrate that gives half-maximal velocity. In general, EC50 refers to the midpoint of the concentration-response curve.
